PubChem BioAssay AID2060492 (Molecular Pharmacology Branch, DTP, NCI, 2025)

Tested on: 695427-040-R-J1-PDC complex spheroids, viability percent T/C
Assay: Anticancer human tumor 695427-040-R-J1-PDC patient-derived colon adenocarcinoma cell line growth inhibition [GQUAD]
Settings: for IC50: curve of first compound; for viability, T/C: stronger effect = lower value
How it was run: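 Viability of tumor cells grown as complex spheroids with endothelial and stromal cells, exposed to drug combinations. Top concentration at or near clinical Cmax (else 10 microM), diluted in half-log increments.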

[1] = second compound 0.0316 µM, first compound 0.0316 µM
[2] = second compound 0.0316 µM, first compound 0.1 µM
[3] = second compound 0.0316 µM, first compound 0.316 µM
[4] = second compound 0.0316 µM, first compound 1 µM
[5] = second compound 0.0316 µM, first compound 3.16 µM
[6] = second compound 0.0316 µM, first compound 10 µM
[7] = second compound 0.1 µM, first compound 0.0316 µM
[8] = second compound 0.1 µM, first compound 0.1 µM
[9] = second compound 0.1 µM, first compound 0.316 µM
[10] = second compound 0.1 µM, first compound 1 µM
[11] = second compound 0.1 µM, first compound 3.16 µM
[12] = second compound 0.1 µM, first compound 10 µM
[13] = second compound 0.316 µM, first compound 0.0316 µM
[14] = second compound 0.316 µM, first compound 0.1 µM
[15] = second compound 0.316 µM, first compound 0.316 µM
[16] = second compound 0.316 µM, first compound 1 µM
[17] = second compound 0.316 µM, first compound 3.16 µM
[18] = second compound 0.316 µM, first compound 10 µM
[19] = second compound 1 µM, first compound 0.0316 µM
[20] = second compound 1 µM, first compound 0.1 µM
[21] = second compound 1 µM, first compound 0.316 µM
[22] = second compound 1 µM, first compound 1 µM
[23] = second compound 1 µM, first compound 3.16 µM
[24] = second compound 1 µM, first compound 10 µM
[25] = second compound 3.16 µM, first compound 0.0316 µM
[26] = second compound 3.16 µM, first compound 0.1 µM
[27] = second compound 3.16 µM, first compound 0.316 µM
[28] = second compound 3.16 µM, first compound 1 µM
[29] = second compound 3.16 µM, first compound 3.16 µM
[30] = second compound 3.16 µM, first compound 10 µM
[31] = second compound 10 µM, first compound 0.0316 µM
[32] = second compound 10 µM, first compound 0.1 µM
[33] = second compound 10 µM, first compound 0.316 µM
[34] = second compound 10 µM, first compound 1 µM
[35] = second compound 10 µM, first compound 3.16 µM
[36] = second compound 10 µM, first compound 10 µM
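Note: spheroids exposed to compounds for seven days before readout.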

C#Cc1c(F)ccc2cc(O)cc(-c3ncc4c(N5CC6CCC(C5)N6)nc(OCC56CCCN5CC(F)C6)nc4c3F)c12 (stereo unspecified) + Cc1[nH]c2ccc(F)cc2c1-c1nc2c3cccnc3c3ncccc3c2[nH]1
IC50 (second compound 0.0316 µM): 1580 nM
IC50 (second compound 0.1 µM): 1280 nM
IC50 (second compound 0.316 µM): 1010 nM
IC50 (second compound 1 µM): 932 nM
IC50 (second compound 3.16 µM): 444 nM
IC50 (second compound 10 µM): 438 nM
viability, T/C [1]: 105%
viability, T/C [2]: 95.3%
viability, T/C [3]: 99.3%
viability, T/C [4]: 75.5%
viability, T/C [5]: 10.3%
viability, T/C [6]: 11.7%
viability, T/C [7]: 117%
viability, T/C [8]: 91.6%
viability, T/C [9]: 93.7%
viability, T/C [10]: 62.3%
viability, T/C [11]: 7.36%
viability, T/C [12]: 8.21%
viability, T/C [13]: 102%
viability, T/C [14]: 96.7%
viability, T/C [15]: 80.4%
viability, T/C [16]: 55.7%
viability, T/C [17]: 5.93%
viability, T/C [18]: 5.99%
viability, T/C [19]: 86.8%
viability, T/C [20]: 84.5%
viability, T/C [21]: 82.5%
viability, T/C [22]: 48%
viability, T/C [23]: 3.1%
viability, T/C [24]: 2.8%
viability, T/C [25]: 73.6%
viability, T/C [26]: 73.2%
viability, T/C [27]: 62.5%
viability, T/C [28]: 19.9%
viability, T/C [29]: 1.77%
viability, T/C [30]: 1.26%
viability, T/C [31]: 70.8%
viability, T/C [32]: 60.4%
viability, T/C [33]: 61.4%
viability, T/C [34]: 21.9%
viability, T/C [35]: 1.1%
viability, T/C [36]: 1.13%

CC(=O)O[C@H]1C(=O)[C@@]2(C)[C@H]([C@H](OC(=O)c3ccccc3)[C@]3(O)C[C@H](OC(=O)[C@H](O)[C@@H](NC(=O)c4ccccc4)c4ccccc4)C(C)=C1C3(C)C)[C@]1(OC(C)=O)CO[C@@H]1C[C@@H]2O + Cc1[nH]c2ccc(F)cc2c1-c1nc2c3cccnc3c3ncccc3c2[nH]1
IC50 (second compound 0.0316 µM): 458 nM
IC50 (second compound 0.1 µM): 467 nM
IC50 (second compound 0.316 µM): 451 nM
IC50 (second compound 1 µM): 469 nM
IC50 (second compound 3.16 µM): 453 nM
IC50 (second compound 10 µM): 496 nM
viability, T/C [1]: 99.4%
viability, T/C [2]: 92.9%
viability, T/C [3]: 71.6%
viability, T/C [4]: 4.67%
viability, T/C [5]: 0.18%
viability, T/C [6]: 0.29%
viability, T/C [7]: 103%
viability, T/C [8]: 97.7%
viability, T/C [9]: 73.2%
viability, T/C [10]: 4.64%
viability, T/C [11]: 0.18%
viability, T/C [12]: 0.45%
viability, T/C [13]: 102%
viability, T/C [14]: 91.2%
viability, T/C [15]: 69.8%
viability, T/C [16]: 6.24%
viability, T/C [17]: 0.21%
viability, T/C [18]: 0.26%
viability, T/C [19]: 89.3%
viability, T/C [20]: 87%
viability, T/C [21]: 72.2%
viability, T/C [22]: 7.42%
viability, T/C [23]: 0.2%
viability, T/C [24]: 0.87%
viability, T/C [25]: 78.3%
viability, T/C [26]: 82.9%
viability, T/C [27]: 69.4%
viability, T/C [28]: 7.14%
viability, T/C [29]: 0.33%
viability, T/C [30]: 0.32%
viability, T/C [31]: 77.1%
viability, T/C [32]: 79.7%
viability, T/C [33]: 75.7%
viability, T/C [34]: 10%
viability, T/C [35]: 0.5%
viability, T/C [36]: 0.22%

CCCS(=O)(=O)Nc1ccc(F)c(C(=O)c2c[nH]c3ncc(-c4ccc(Cl)cc4)cc23)c1F + Cc1[nH]c2ccc(F)cc2c1-c1nc2c3cccnc3c3ncccc3c2[nH]1
IC50 (second compound 0.0316 µM): > 10000 nM
IC50 (second compound 0.1 µM): > 10000 nM
IC50 (second compound 0.316 µM): > 10000 nM
IC50 (second compound 1 µM): 9220 nM
IC50 (second compound 3.16 µM): 5020 nM
IC50 (second compound 10 µM): 2510 nM
viability, T/C [1]: 97.4%
viability, T/C [2]: 89.3%
viability, T/C [3]: 92.5%
viability, T/C [4]: 84.3%
viability, T/C [5]: 70.9%
viability, T/C [6]: 60.1%
viability, T/C [7]: 109%
viability, T/C [8]: 99.2%
viability, T/C [9]: 86%
viability, T/C [10]: 77.6%
viability, T/C [11]: 70.9%
viability, T/C [12]: 53.8%
viability, T/C [13]: 107%
viability, T/C [14]: 93.9%
viability, T/C [15]: 77.7%
viability, T/C [16]: 73.4%
viability, T/C [17]: 66.6%
viability, T/C [18]: 54.7%
viability, T/C [19]: 93.9%
viability, T/C [20]: 89.8%
viability, T/C [21]: 85.3%
viability, T/C [22]: 76.2%
viability, T/C [23]: 63.9%
viability, T/C [24]: 49%
viability, T/C [25]: 84%
viability, T/C [26]: 86.2%
viability, T/C [27]: 72%
viability, T/C [28]: 71.2%
viability, T/C [29]: 56.5%
viability, T/C [30]: 39.8%
viability, T/C [31]: 69.2%
viability, T/C [32]: 72.6%
viability, T/C [33]: 63.3%
viability, T/C [34]: 66%
viability, T/C [35]: 46%
viability, T/C [36]: 37.1%
